In publication PMC11243419, “Ruthenium p-Cymene Complexes Incorporating Substituted Pyridine–Quinoline-Based Ligands: Synthesis, Characterization, and Cytotoxic Properties” (Molecules, 2024):
Where two headings read alike, the source gives them in different places.

Key:
[1] = system: carcinoma human T24 bladder cells; set-up: method as in PMID 37569273; settings: T24 bladder cells vs other cell lines; cited from earlier work
HeLa cells [2] = settings: cited from earlier work
HEK293T cells = test: MTT cell viability assay, HEK293T cells; assay type: cell-based, human; settings: 48 h incubation, mean ± SD, stock in DMSO (3-Cl and cisplatin in water)
Description: (§1) Cell viability tests of the ligand and metal precursors (pqhyme, pqca, pcqame, [Ru(η^6-p-cymene)(μ-Cl)Cl]2) and the ruthenium(II)–arene complexes 1-Cl, 2-Cl and 3-Cl were conducted in two cell lines, including epithelial-like HEK293T cells (human embryonic kidney cells) and tumor-derived HeLa cells (cervical cancer cells), by MTT colorimetric assay, after 48 h incubation (MTT = 3-(4,5-dimethylthiazol-2-yl)-2,5-diphenyl tetrazolium bromide). For comparison, the 3-PF6 analog was also studied. Generally, a 5 to 10 mM stock solution of the complexes in DMSO (H2O for cisplatin) was prepared and diluted appropriately to reach the final concentration reported in the Materials and Methods. HeLa cancer cells were chosen since this cell line is widely used in cytotoxicity studies while the non-cancerous HEK293T cell line was used for comparison. Cytotoxicity results of all substances studied in both cell lines expressed as IC50 mean values, are summarized in Table 1, including that of cisplatin, which served as control under the same conditions. The IC50 values were calculated using a dose–response model, which was obtained from sigmoidal fitting of dose–response curves.
(§2) The HEK293T cell line (immortalized human embryonic kidney cells) and the HeLa cell line (cervical cancer cells) were obtained from ATCC. Cells were cultured at 37 °C and 5% CO2 in high glucose Dulbecco’s modified Eagle’s medium (DMEM) containing 10% fetal bovine serum (FBS), penicillin (100 units/mL), and streptomycin (100 μg/mL).
(§3) Ruthenium complexes were diluted in stock solutions of 10 mM in dimethyl sulfoxide (DMSO). A similar concentration of cisplatin dissolved in H2O was used. Cells were seeded in sterile tissue culture 96-well plates at a density of 3,000 cells per well. After 24 h, the medium was removed and replaced with fresh media containing various concentrations (0.01 μΜ, 0.1 μΜ, 1 μΜ, 10 μΜ, 25 μΜ, 40 μΜ, 55 μΜ, 70 μΜ, 85 μΜ, and 100 μΜ) of the compounds to be tested and were further incubated for 48 h at 37 °C. DMSO was used as vehicle at ≤1%. Culture medium containing the compounds (or DMSO) was removed and 100 μL of 0.5 mg/mL MTT reagent (Applichem) diluted in DMEM was added to the cells for 3 h at 37 °C. After 3 h incubation, MTT was removed and 200 μL of DMSO was added. Absorbance values of formazan were measured at 540 nm using a BioTek Synergy H1 microplate reader (Agilent). All compounds were tested in triplicate. The results were statistically analyzed using the nonlinear regression by GraphPad PRISM (Version 9) to extract IC50 values.

HeLa cells [3] = test: MTT cell viability assay, HeLa cells; assay type: cell-based, human; settings: 48 h incubation, mean ± SD, stock in DMSO (3-Cl and cisplatin in water)
Description: as §1, §2, §3

[4] = Solution stability by UV-Vis spectroscopy; assay type: physicochemical; settings: for Stability in the media used for the biological assays (UV-Vis): DMSO, ambient temperature
Description: To ensure the stability of the complexes for the in vitro cytotoxicity measurements, UV–Vis and ^1H NMR spectroscopic techniques were undertaken. UV–Vis spectra were recorded in DMSO (not dry), for complexes 1-Cl and 2-Cl (Figures S25–S27) and in water for complex 3-Cl (Figure 3), at ambient temperature, immediately after dissolution. The absorption spectra of 1-Cl and 2-Cl show a broad absorption band centered at ~ 435 nm, as reported for other ruthenium(II) half-sandwich arene complexes. For 3-Cl, this band becomes weaker and is blue-shifted to 422 nm. Ongoing from 1-Cl to 3-Cl, the set of high energy bands observed at 354 nm/296 nm (1-Cl), 357 nm/298 nm (2-Cl), and 357 nm/293 nm (3-Cl), are typical of metal-to-ligand charge transfer absorption bands (MLCT) and ligand-centered π–π* transitions. Within the series, ε values for these transitions range from 3000 to 9600 dm^3 mol^−1 cm^−1, with the methyl ester analog 3-Cl, displaying the higher extinction coefficient value of ∼9600 dm^3 mol^−1 cm^−1.
(§4) The cytotoxicity studies of the organometallic ruthenium(II) complexes 1-Cl, 2-Cl, and 3-PF6 were carried out in dimethyl sulfoxide (DMSO) while 3-Cl was dissolved in water. According to UV–Vis spectroscopy, complexes 1-Cl and 2-Cl are stable in the media that are used for the biological assays (Figures S25–S26), while 3-Cl undergoes hydrolysis approximately 3 h after with isosbestic points at 276 nm and 322 nm, respectively (Figure S27). […] In any case, for the biological assays, freshly prepared solutions were prepared that were utilized within approximately 5–10 min.

[5] = Solution stability by 1H NMR spectroscopy; assay type: physicochemical
Source text: The solution NMR spectra (^1H and ^13C{^1H}) of 1-Cl and 1-PF6 in CDCl3 feature the characteristic set of resonances of the pqhyme and p-cymene ligands supporting the proposed formulae of the compounds (Figures S2–S5 of the Supplementary Materials). Atom numbering for NMR assignment is included in Scheme 1. […] The separate and well-resolved resonance signals at δ 5.92–5.61 in a ratio of 1:1:1:1 (according to integration) are typical of the p-cymene ring protons. The characteristic singlet resonance signals at δ 5.47 for 1-Cl and 5.48 for 1-PF6 are attributed to the -CH2 protons of the pending -CH2OH moiety. These were upfield shifted compared to the p-cymene ligand of the metal precursor [43]. In addition, the septet resonance signals at δ 2.29 for 1-Cl and δ 2.44 for 1-PF6 are indicative of the -CH(CH3)2 proton, while the two […] at δ 0.87/0.91 (1-Cl) and δ 0.93/0.97 (1-PF6) can be assigned to the methyl protons of the isopropyl group. For 1-Cl, and after two days of standing in CDCl3, free p-cymene was detected (c.a. 2.6%) along with the formation of new unknown species. The ^1H NMR pattern of the spectrum remained practically unchanged (Figure S7).
The ^1H NMR spectrum of 2-Cl was recorded in DMSO-d6 at ambient temperature. […] The stability of 2-Cl in DMSO is shown below in Section 2.1.1. […] The singlet resonance at δ 8.94 is typical for H3 of the bidentate ligand, while the four separate doublet resonance signals in between δ 6.19, 6.13, 6.03, and 5.97 correspond to the p-cymene ring protons. […] In this region, the CH3 protons of the -CH-(CH3)2 moiety appear as two doublet resonances at δ 0.81 and 0.77, respectively. The ^13C NMR signals of 2-Cl were assigned by two-dimensional ^1H–^13C HSQC and ^1H–^13C HMBC methods and compared with the literature data from similar complexes. […] Analyzing the spectrum, the resonance signal at δ 166.31 is assigned to the carbon atom of the carboxylic acid group of pqca. In the aliphatic region of the spectrum, the carbon atoms from the CH3 groups of p-cymene ligand appear as intense singlets at δ 21.58, 21.21, and 18.18, respectively (Figures S12–S15).
as §4

Solubility (qualitative) = assay type: physicochemical; settings: solvents
Description: The mononuclear organometallic complex 1-Cl comprising the pqhyme ligand was isolated as an orange–brown solid in high yield. […] Subsequent treatment with a saturated aqueous KPF6 solution afforded, via a metathesis reaction, the hexafluorido analog 1-PF6. Both complexes are air-stable in the solid state and melt with decomposition at 155 °C and 137 °C, respectively. The FT-IR spectra (ATR mode) of both complexes are almost identical, as expected for complexes that display very similar structures. For 1-Cl the presence of water of crystallization is evident from the intense and broad bands at ∼3350–3250 cm^−1 due to the antisymmetric and symmetric ν(O-H) stretching vibration modes. The O–H stretching vibration band from pending -CH2OH moiety is hampered within the broadness of the band reported above. Also, the strong band at approximately 1650 cm^−1 is due to the δ(H–O-H) bending mode. The characteristic bands at 3061 cm^−1, and in the region of 2998–2850 cm^−1 correspond to ν(C–H) aromatic and aliphatic stretching vibrations modes of the ligand, while the medium intensity band at ∼800 cm^−1 is typical for the stretching vibration mode of ν(Ru–C). In the region of 800-600 cm^−1, the spectrum is dominated by the very strong in-plane and out-of-plane deformation bands from the pyridine ring of pqhyme ligand. For 1-PF6, the two very strong bands at 840 cm^−1 and 557 cm^−1 are assigned to the ν3(P–F) and ν4(P–F) vibration modes of the PF6^− anion (Figure S1 of the Supplementary Materials).
The [Ru(η^6-p-cymene)(pqca)Cl]Cl complex 2-Cl was isolated in 85% yield as an orange–red air-stable solid that melts at 125 °C. Upon further heating, decomposition occurs at 150 °C, accompanied by gas evolution, leading to a black solid.
The [Ru(η^6-p-cymene)(pqcame)Cl]Cl analog 3-Cl was isolated almost quantitatively as a dark brown air-stable solid that decomposes at 111 °C. […] The FT-IR spectrum of 3-Cl is characterized by a strong asymmetric stretching vibration typical of the νas(C=O) of the ester moiety at 1722 cm^−1, shifted to higher wave numbers compared with 2-Cl. […]

## Cc1ccc(C(C)C)cc1.O=C(O)c1ccnc(-c2cc(C(=O)O)ccn2)c1.[Cl-].[Cl-].[Ru+2]
[1]
  Selectivity among cell lines: high selectivity toward carcinoma human T24 bladder cells

## Cc1ccc(C(C)C)cc1.Nc1ccccc1O.[Cl][Ru][Cl]
HeLa cells [2]
  IC50: 82.9 µM

## Cc1ccc(C(C)C)cc1.Nc1ccc(O)cc1.[Cl][Ru][Cl]
HeLa cells [2]
  IC50: 171 µM

## 4-carboxymethyl-2-(pyridin-2-yl)quinoline [pqcame]
HEK293T cells
  IC50: 48.9 ± 3.19 µM
HeLa cells [3]
  IC50: 56.4 ± 12.7 µM

## Cc1ccc(C(C)C)cc1.Cc1ccc(C(C)C)cc1.[Cl][Ru][Cl].[Cl][Ru][Cl] [[Ru(p-cymene)Cl2]2, [Ru(η^6-p-cymene)(μ-Cl)Cl]2]
HEK293T cells
  IC50: 48.3 ± 1.66 µM
HeLa cells [3]
  IC50: 48.9 ± 1.73 µM

## N.N.[Cl][Pt][Cl] [cis-platin, cisplatin, reference compound]
HEK293T cells
  IC50: 16.4 ± 7.62 µM
HeLa cells [3]
  IC50: 9.26 ± 1.09 µM

## O=C(O)c1cc(-c2ccccn2)nc2ccccc12 [pqca, 4-carboxy-2-(pyridin-2-yl)quinoline]
HEK293T cells; Homo sapiens, HEK-293T
  IC50: 87.5 ± 1.3 µM
HeLa cells [3]; Homo sapiens, HeLa
  IC50: 100 ± 3.47 µM

## OCc1cc(-c2ccccn2)nc2ccccc12 [pqhyme, 4-hydroxymethyl-2-(pyridin-2-yl)quinoline]
HEK293T cells; Homo sapiens, HEK-293T
  IC50: 2.67 ± 1.23 µM
HeLa cells [3]; Homo sapiens, HeLa
  IC50: 12.8 ± 1.01 µM

## [Ru(η^6-p-cymene)(pqca)Cl][Cl] [2-Cl]
HEK293T cells
  IC50: 180 ± 49.1 µM
HeLa cells [3]
  IC50: 162 ± 21.3 µM
[4]
  Stability in the media used for the biological assays (UV-Vis): stable
[5]; DMSO-d6
  Period of 1H NMR monitoring showing stability: more than 72 h
  Stability in DMSO-d6 (1H NMR): practically remains stable
Solubility (qualitative)
  Solubility: soluble in polar organic solvents (MeOH, EtOH, water) including DMSO and DMF

## [Ru(η^6-p-cymene)(pqcame)Cl][Cl] [3-Cl]
HEK293T cells
  IC50: > 115 µM
HeLa cells [3]
  IC50: > 80 µM
[4]; in water
  Time until hydrolysis (UV-Vis, isosbestic points at 276 nm and 322 nm): approximately 3 h
Solubility (qualitative)
  Solubility: dissolves in water, DMSO, and other polar solvents

## [Ru(η^6-p-cymene)(pqcame)Cl][PF6] [3-PF6]
HEK293T cells
  IC50: 145 ± 16.2 µM
HeLa cells [3]
  IC50: 134 ± 3.3 µM

## [Ru(η^6-p-cymene)(pqhyme)Cl][Cl] [1-Cl]
HeLa cells [3]
  IC50: 119 ± 1.29 µM
[4]
  Stability in the media used for the biological assays (UV-Vis): stable
[5]; DMSO-d6
  Stability in DMSO-d6 (1H NMR): stable
[5]; after two days of standing in CDCl3
  Free p-cymene detected (1H NMR): ~2.6%
Solubility (qualitative)
  Solubility: dissolves in DMSO, and water and is less soluble in CHCl3
